One experiment concerns the target BTK (Homo sapiens (Human), UniProt Q06187). The experiment in a line: BTK enzyme experiment (ADP-Glo kinase assay). The experiment is classed as biochemical. As to conditions: 10 nM BTK, ATP 125 μM, Poly(Glu4, Tyr1), 90 minutes at 20° C.; read-out: BTK(WT) IC50. An outline of the steps:
(§1)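 Wild-type or C481S BTK, added as 2× solution at 10 nM, preincubated 10 min with 3-fold compound dilutions in 50 mM HEPES pH 7.5, 10 mM MgCl2, 2 mM DTT, 0.0015% Brij-35. ADP-Glo luminescence norm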
For orientation: ADP-Glo turns the ADP formed in a reaction into a luminescent signal.

The subject of a further experiment is TMD-8 cells. Description: TMD-8 proliferation inhibition experiment. Format: cell-based. To be noted: human diffuse large B lymphoma cells, three days incubation. As to the method:
TMD-8 cells are human diffuse large B lymphoma (Mingzhou Bio, MZ-0832), cultured in 10% FBS+1% PS 1640 medium; OCI-LY10 is human diffuse large B lymphoma (BeNa Culture Collection, BNCC337742), cultured in 10% FBS+1% PS IMDM. Day 1: Cells at logarithmic growth phase were taken, counted and inoculated 600 TMD-8 or 2000 OCI-LY10 cells in a 384-well cell culture plate and cultured overnight. Day 2: A 3-fold gradient concentration stock solution of 400× compound was prepared with DMSO, and diluted 40-fold to a 10× compound stock solution with culture medium. The 10× compound stock solution was added to each cell culture well with a final concentration of 1× compound stock solution and a DMSO content of 0.25%. DMSO was used as experimental control, and culture medium was used as blank control. The incubation was continued for three days after compound addition. On the fifth day, 25 μL of […] was added to each well, mixed well and incubated for 10 minutes, then the chemiluminescence value (RLU value) was read. The cell proliferation inhibition rate (%)=(RLUcontrol−RLUcompound)/(RLUcontrol−RLUblank)×100% was calculated. The compound gradient dilution concentration and the corresponding cell proliferation inhibition rate were fit by using XLFit four-parameter method, and IC50 value was calculated.

The target in the next experiment is BTK (C481S) (Homo sapiens (Human), UniProt Q06187, C481S). The experiment in a line: BTK C481S enzyme experiment (ADP-Glo kinase assay). Format: biochemical. As to conditions: 10 nM BTK C481S, ATP 125 μM, Poly(Glu4, Tyr1), 90 minutes at 20° C. The method in brief: as §1
BTK (C481S), sequence (Q06187 whole entry C481S): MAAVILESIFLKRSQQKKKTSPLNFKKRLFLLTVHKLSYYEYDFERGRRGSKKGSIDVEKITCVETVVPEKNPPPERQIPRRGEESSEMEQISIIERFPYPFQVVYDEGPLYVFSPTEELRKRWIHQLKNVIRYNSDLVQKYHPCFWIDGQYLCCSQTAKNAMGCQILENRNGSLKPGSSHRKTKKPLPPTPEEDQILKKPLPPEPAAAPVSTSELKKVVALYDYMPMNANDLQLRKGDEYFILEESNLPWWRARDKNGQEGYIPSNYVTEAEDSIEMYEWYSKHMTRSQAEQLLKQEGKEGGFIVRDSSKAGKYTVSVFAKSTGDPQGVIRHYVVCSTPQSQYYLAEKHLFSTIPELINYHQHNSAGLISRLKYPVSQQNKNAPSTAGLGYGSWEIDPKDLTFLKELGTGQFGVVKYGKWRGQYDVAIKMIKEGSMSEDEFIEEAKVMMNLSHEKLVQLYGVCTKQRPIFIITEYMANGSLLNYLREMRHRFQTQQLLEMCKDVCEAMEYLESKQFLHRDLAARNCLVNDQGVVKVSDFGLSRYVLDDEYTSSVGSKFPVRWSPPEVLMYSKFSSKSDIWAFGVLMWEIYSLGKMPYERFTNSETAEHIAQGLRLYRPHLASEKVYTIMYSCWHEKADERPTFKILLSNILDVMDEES

Experimental findings from US20240360154A1, “AROYL SUBSTITUTED TRICYCLIC COMPOUND, PREPARATION METHOD THEREFOR AND USE THEREOF” (GENFLEET THERAPEUTICS (SHANGHAI) INC., priority 2020, published 2024) are described below.

As usually defined, the pIC50 is the negative decadic logarithm of the IC50, by convention in mol/L.

pIC50: −log10 of the molar value.

BTK, sequence (Q06187 whole entry): as the sequence (Q06187 whole entry C481S) above, with S481C counted along it

Consider `Cc1ccnc(Oc2ccc(C(=O)c3c[nH]c4ncc5c(c34)NC3(CCOCC3)C(=O)N5C)c(Cl)c2)c1` [Z72, 9′-(2-chloro-4-((4-methylpyridin-2-yl)oxy)benzoyl)-4′-methyl-2,3,4′,5,6,7′-hexahydrospiro[pyran-4,2′-pyrrolo[3′,2′:5,6]pyrido[3,4-b]pyrazin]-3′(1′H)-one], for which the negative logarithm of the IC50 (pIC50) on BTK was 7.40; in the experiment on TMD-8 cells (Homo sapiens, TMD8, 72 h), 6.39; against BTK (C481S) it was 7.43.

Turning to `COCC1(C)Nc2c(cnc3[nH]cc(C(=O)c4ccc(Oc5ccccc5)cc4Cl)c23)N(C)C1=O` (single isomer, unassigned) [Z52-1, 9-(2-chloro-4-phenoxybenzoyl)-2-(methoxymethyl)-2,4-dimethyl-1,2,4,7-tetrahydro-3H-pyrrolo[3′,2′:5,6]pyrido[3,4-b]pyrazin-3-one], the pIC50 on BTK is 7.62; in the experiment on TMD-8 cells (Homo sapiens, TMD8, 72 h), 6.70; on BTK (C481S), 7.62.

As to `CN1C(=O)[C@@](C)(CO)Nc2c1cnc1[nH]cc(C(=O)c3ccc(Oc4ccccc4)cc3Cl)c21` (single isomer, unassigned) [Z51-2], the negative logarithm of the IC50 (pIC50) on BTK is 7.49; in the experiment with TMD-8 cells, 6.81; on BTK (C481S), 7.68.

For `COC[C@]1(C)Nc2c(cnc3[nH]cc(C(=O)c4ccc(Oc5cccc(F)c5)cc4Cl)c23)NC1=O` [Z157, (S)-9-(2-chloro-4-(3-fluorophenoxy)benzoyl)-2-(methoxymethyl)-2-methyl-1,2,4,7-tetrahydro-3H-pyrrolo[3′,2′:5,6]pyrido[3,4-b]pyrazin-3-one], the pIC50 was 7.82 at BTK; 6.84 with TMD-8 cells (Homo sapiens, TMD8, 72 h); 7.97 against BTK (C481S).

As for `CN1CCC2(C1)Nc1c(cnc3[nH]cc(C(=O)c4ccc(Oc5cccc(F)c5)cc4Cl)c13)NC2=O` (stereo not drawn) [Z7], the results for the negative-log IC50 (pIC50) on BTK, with TMD-8 cells and on BTK (C481S) were 7.55, 6.59 and 7.75, respectively.

As for `CC(=O)N1CC[C@@]2(C1)Nc1c(cnc3[nH]cc(C(=O)c4ccc(Oc5ccccc5)cc4Cl)c13)NC2=O` (single isomer, unassigned) [Z4-2], the pIC50 on BTK was 7.34; with TMD-8 cells, 5.92; against BTK (C481S) it was 7.70.

As to `CN1CC2(C1)Nc1c(cnc3[nH]cc(C(=O)c4ccc(Oc5ccccc5)cc4Cl)c13)NC2=O` [Z11, 9′-(2-chloro-4-phenoxybenzoyl)-1-methyl-4′,7′-dihydrospiro[azetidine-3,2′-pyrrolo[3′,2′:5,6]pyrido[3,4-b]pyrazin]-3′(1′H)-one], the pIC50 is 7.26 at BTK; 6.43 in the experiment with TMD-8 cells (Homo sapiens, TMD8, 72 h); 7.67 against BTK (C481S).

In the case of `COCCOCC1(C)Nc2c(cnc3[nH]cc(C(=O)c4ccc(Oc5ccccc5)cc4Cl)c23)NC1=O` (single isomer, unassigned) [Z153-1, 9-(2-chloro-4-phenoxybenzoyl)-2-((2-methoxyethoxy)methyl)-2-methyl-1,2,4,7-tetrahydro-3H-pyrrolo[3′,2′:5,6]pyrido[3,4-b]pyrazin-3-one], the pIC50 was 7.34 on BTK; 6.47 in the experiment with TMD-8 cells (Homo sapiens, TMD8, 72 h); 7.59 against BTK (C481S).

For the compound `N#C[C@H]1CC[C@@]2(C1)Nc1c(cnc3[nH]cc(C(=O)c4ccc(Oc5ccccc5)cc4Cl)c13)NC2=O` (single isomer, unassigned) [Z26-2], the figures for the negative-log IC50 (pIC50) on BTK, in the experiment with TMD-8 cells and against BTK (C481S) were 7.63, 6.80 and 7.76, respectively.

For `[2H]C([2H])([2H])OCC1(C)Nc2c(cnc3[nH]cc(C(=O)c4ccc(Oc5ccccc5)cc4Cl)c23)NC1=O` (stereo not drawn) [Z66, 9-(2-chloro-4-phenoxybenzoyl)-2-((methoxy-d3)methyl)-2-methyl-1,2,4,7-tetrahydro-3H-pyrrolo[3′,2′:5,6]pyrido[3,4-b]pyrazin-3-one], the pIC50 on BTK was 7.79; in the experiment on TMD-8 cells (Homo sapiens, TMD8, 72 h) it was 6.83; against BTK (C481S), 8.03.

For `COC[C@]1(C)Nc2c(cnc3[nH]cc(C(=O)c4ccc(Oc5ncccc5C)cc4Cl)c23)NC1=O` [Z140, (S)-9-(2-chloro-4-((3-methylpyridin-2-yl)oxy)benzoyl)-2-(methoxymethyl)-2-methyl-1,2,4,7-tetrahydro-3H-pyrrolo[3′,2′:5,6]pyrido[3,4-b]pyrazin-3-one], the pIC50 on BTK was 7.58; in the experiment with TMD-8 cells (Homo sapiens, TMD8, 72 h) it was 6.80; on BTK (C481S), 7.74.

For `CN1CCC2(C1)Nc1c(cnc3[nH]cc(C(=O)c4ccc(Oc5cc(C(F)(F)F)ccn5)cc4Cl)c13)NC2=O` (stereo not drawn) [Z12], the pIC50 on BTK is 7.58; in the experiment with TMD-8 cells, 6.32; against BTK (C481S), 7.34.

Regarding `CC1(C)Nc2c(cnc3[nH]cc(C(=O)c4ccc(Oc5ccccc5)cc4Cl)c23)N(CCO)C1=O` [Z15], the negative-log IC50 (pIC50) at BTK is 7.24; with TMD-8 cells, 6.20; on BTK (C481S), 7.14.

On to `COC[C@]1(C)Nc2c(cnc3[nH]cc(C(=O)c4ccc(Oc5ccccc5)cc4Cl)c23)N(CCO)C1=O` [Z143], for which the pIC50 at BTK is 7.45; with TMD-8 cells, 6.54; against BTK (C481S) it was 7.63.

On to `CN1CCC2(C1)Nc1c(cnc3[nH]cc(C(=O)c4ccc(Oc5ccccc5F)cc4Cl)c13)NC2=O` (stereo not drawn) [Z6], for which the pIC50 was 7.71 at BTK, 6.82 in the experiment on TMD-8 cells and 7.85 against BTK (C481S).

Consider `O=C(c1ccc(Oc2ccccc2)cc1Cl)c1c[nH]c2ncc3c(c12)N[C@]1(CC[C@H](O)C1)C(=O)N3` (single isomer, unassigned) [Z24-2], for which the pIC50 at BTK is 8.30; in the experiment with TMD-8 cells, 7.20; against BTK (C481S), 8.33.

For the compound `COCC1(C)Nc2c(cnc3[nH]cc(C(=O)c4ccc(Oc5ccccc5)cc4F)c23)NC1=O` (stereo not drawn) [Z71], the pIC50 was 7.69 on BTK, 6.77 in the experiment with TMD-8 cells and 7.67 at BTK (C481S).

For `COC[C@]1(C)Nc2c(cnc3[nH]cc(C(=O)c4ccc(Oc5cccc(OC)c5)cc4Cl)c23)NC1=O` [Z166, (S)-9-(2-chloro-4-(3-methoxyphenoxy)benzoyl)-2-(methoxymethyl)-2-methyl-1,2,4,7-tetrahydro-3H-pyrrolo[3′,2′:5,6]pyrido[3,4-b]pyrazin-3-one], the negative-log IC50 (pIC50) at BTK is 7.47; with TMD-8 cells (Homo sapiens, TMD8, 72 h), 6.61; against BTK (C481S) it was 7.23.

In the case of `COC1CCC2(C1)Nc1c(cnc3[nH]cc(C(=O)c4ccc(Oc5ccccc5)cc4Cl)c13)NC2=O` (single isomer, unassigned) [Z25-1, 9′-(2-chloro-4-phenoxybenzoyl)-3-methoxy-4′,7′-dihydrospiro[cyclopentane-1,2′-pyrrolo[3′,2′:5,6]pyrido[3,4-b]pyrazin]-3′(1′H)-one], the negative logarithm of the IC50 (pIC50) at BTK is 7.49; in the experiment with TMD-8 cells (Homo sapiens, TMD8, 72 h) it was 7.00; on BTK (C481S), 7.70.

As to `O=C(c1ccc(Oc2ccccc2)cc1Cl)c1c[nH]c2ncc3c(c12)N[C@@]1(CC[C@H](CO)OC1)C(=O)N3` (single isomer, unassigned) [Z41-2b], the negative-log IC50 (pIC50) on BTK is 8.10; in the experiment on TMD-8 cells it was 7.00; at BTK (C481S), 8.21.

With `COC1CCC2(C1)Nc1c(cnc3[nH]cc(C(=O)c4ccc(Oc5ccccc5)cc4Cl)c13)NC2=O` (stereo not drawn) [Z25, 9′-(2-chloro-4-phenoxybenzoyl)-3-methoxy-4′,7′-dihydrospiro[cyclopentane-1,2′-pyrrolo[3′,2′:5,6]pyrido[3,4-b]pyrazin]-3′(1′H)-one], the pIC50 was 8.22 at BTK; 6.89 in the experiment on TMD-8 cells (Homo sapiens, TMD8, 72 h); 8.31 on BTK (C481S).

As to `COC[C@]1(C)Nc2c(cnc3[nH]cc(C(=O)c4ccc(Oc5ccccc5F)cc4F)c23)NC1=O` [Z156, (S)-9-(2-fluoro-4-(2-fluorophenoxy)benzoyl)-2-(methoxymethyl)-2-methyl-1,2,4,7-tetrahydro-3H-pyrrolo[3′,2′:5,6]pyrido[3,4-b]pyrazin-3-one], the pIC50 at BTK is 7.70; in the experiment on TMD-8 cells (Homo sapiens, TMD8, 72 h), 6.93; at BTK (C481S), 7.98.

As for `COC[C@]1(C)Nc2c(cnc3[nH]cc(C(=O)c4ccc(Oc5cccc(C)n5)cc4Cl)c23)NC1=O` [Z124-1, (S)-9-(2-chloro-4-((6-methylpyridin-2-yl)oxy)benzoyl)-2-(methoxymethyl)-2-methyl-1,2,4,7-tetrahydro-3H-pyrrolo[3′,2′:5,6]pyrido[3,4-b]pyrazin-3-one], the pIC50 at BTK is 7.61; in the experiment on TMD-8 cells (TMD8, 72 h), 6.70; against BTK (C481S), 7.52.

`COCC1(C)Nc2c(cnc3[nH]cc(C(=O)c4ccc(Oc5cc(C6CC6)ccn5)cc4Cl)c23)NC1=O` (stereo not drawn) [Z73, 9-(2-chloro-4-((4-cyclopropylpyridin-2-yl)oxy)benzoyl)-2-(methoxymethyl)-2-methyl-4,7-dihydro-1H-pyrrolo[3′,2′:5,6]pyrido[3,4-b]pyrazin-3(2H)-one]: the pIC50 at BTK was 7.64; in the experiment on TMD-8 cells (Homo sapiens, TMD8, 72 h) it was 6.68; on BTK (C481S), 7.84.
